Experimental data reported in patent US6448405B1, “Steroid receptor modulator compounds and methods” (Ligand Pharmaceuticals Incorporated, priority 1994, dated 2002).
Where two headings read alike, the source gives them in different places. One block for each compound: values may come before it.

Key:
[1] = system: uterine wet weight in ovariectomized Sprague-Dawely rats; assay: Uterine wet weight assay (PR agonists); assay type: in vivo, rat; conditions: for effect on uterine wet weight when co-administered with estrone: MPA and Compound 210 at 0.3, 1.0 and 3.0 mg/rat, Compound 163 at 3 mg/rat
Source text: The effectiveness of selected compounds of the present invention as PR agonists was investigated in the well recognized uterine wet weight assay, as described in G. J. Marcus, “Mitosis in the rat uterus during the estrous cycle, early pregnancy and early pseudopregnancy”, 10 Biol. Reprod., 447 (1974), S. […] J. Obstet. […] I. Dorfman, “Estrogens” (Ch. 2) and “Antiestrogens” (Ch. 3). in Methods in Hormone Research, ed. R. I. Dorfman, Academic Press, New York, New York, pp101-130 (1969), the disclosures of which are herein incorporated by reference. Four to five week old, ovariectomized, Sprague-Dawely rats (Harlan-Sprague-Dawely, Indianapolis, Ind.) were obtained 1 week after surgery and allowed to acclimate for an additional week after shipment. […] Louis, Mo.) a synthetic estrogen agonist, were fully dissolved in purified sesame oil (Croda, Parsippany, N.J.). […] Additional control groups of rats were administered estrone or vehicle (i.e. sesame oil) alone. Animals were sacrificed on the fourth day of the experiment.

PR, AR, ER, GR and MR = assay: cis-trans or co-transfection assay, steroid receptor panel (cross-reactivity); assay type: cell-based, human; conditions: as seen in the Tables
human PR-B = target: T1, human PR-B (Homo sapiens, UniProt P06401); assay: Co-transfection assay, PR agonist and antagonist activity, CV-1 cells; assay type: cell-based; conditions: for IC50: read-out: PR Antagonist CV-1 Cells Potency;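 as to all read-outs here: luciferase reporter driven by a hormone response element, co-transfected with human PR-B into CV-1 monkey kidney cells, agonists raise and antagonists lower the reporter signal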
T1 construct: expressed in transfected cells; host or cells: CV-1 cells (African green monkey kidney fibroblasts), transient transfection
T1 sequence (P06401 1-933): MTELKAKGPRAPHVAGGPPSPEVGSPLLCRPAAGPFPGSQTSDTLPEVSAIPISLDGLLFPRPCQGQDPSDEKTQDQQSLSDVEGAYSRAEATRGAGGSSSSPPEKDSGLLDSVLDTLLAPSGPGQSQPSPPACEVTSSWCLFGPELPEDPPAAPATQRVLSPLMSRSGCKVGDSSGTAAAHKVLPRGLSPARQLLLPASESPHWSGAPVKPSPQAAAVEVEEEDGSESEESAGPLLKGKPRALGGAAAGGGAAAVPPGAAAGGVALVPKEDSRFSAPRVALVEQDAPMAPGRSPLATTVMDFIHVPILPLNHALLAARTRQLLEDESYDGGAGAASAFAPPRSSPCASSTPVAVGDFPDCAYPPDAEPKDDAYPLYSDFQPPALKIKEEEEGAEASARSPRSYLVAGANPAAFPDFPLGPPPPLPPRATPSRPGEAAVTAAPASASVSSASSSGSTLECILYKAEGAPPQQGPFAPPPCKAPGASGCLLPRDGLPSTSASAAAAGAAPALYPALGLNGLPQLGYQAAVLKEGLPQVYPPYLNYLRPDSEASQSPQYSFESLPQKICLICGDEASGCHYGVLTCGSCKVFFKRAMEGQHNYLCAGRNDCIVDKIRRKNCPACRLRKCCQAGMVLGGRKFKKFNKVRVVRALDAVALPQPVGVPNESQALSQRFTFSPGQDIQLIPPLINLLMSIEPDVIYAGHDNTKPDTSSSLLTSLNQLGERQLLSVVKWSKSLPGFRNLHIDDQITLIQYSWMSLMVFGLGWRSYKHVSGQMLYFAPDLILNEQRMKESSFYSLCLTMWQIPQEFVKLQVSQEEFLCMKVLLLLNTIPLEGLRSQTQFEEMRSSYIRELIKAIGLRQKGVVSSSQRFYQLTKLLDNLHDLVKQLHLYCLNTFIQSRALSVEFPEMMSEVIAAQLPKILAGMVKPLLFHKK

[2] = target: T2, human progesterone receptor A form (PR-A) (Homo sapiens, UniProt P06401); assay: PR binding assay, baculovirus extract, [3H] progesterone
T2 sequence (P06401 1-769 isoform P06401-2): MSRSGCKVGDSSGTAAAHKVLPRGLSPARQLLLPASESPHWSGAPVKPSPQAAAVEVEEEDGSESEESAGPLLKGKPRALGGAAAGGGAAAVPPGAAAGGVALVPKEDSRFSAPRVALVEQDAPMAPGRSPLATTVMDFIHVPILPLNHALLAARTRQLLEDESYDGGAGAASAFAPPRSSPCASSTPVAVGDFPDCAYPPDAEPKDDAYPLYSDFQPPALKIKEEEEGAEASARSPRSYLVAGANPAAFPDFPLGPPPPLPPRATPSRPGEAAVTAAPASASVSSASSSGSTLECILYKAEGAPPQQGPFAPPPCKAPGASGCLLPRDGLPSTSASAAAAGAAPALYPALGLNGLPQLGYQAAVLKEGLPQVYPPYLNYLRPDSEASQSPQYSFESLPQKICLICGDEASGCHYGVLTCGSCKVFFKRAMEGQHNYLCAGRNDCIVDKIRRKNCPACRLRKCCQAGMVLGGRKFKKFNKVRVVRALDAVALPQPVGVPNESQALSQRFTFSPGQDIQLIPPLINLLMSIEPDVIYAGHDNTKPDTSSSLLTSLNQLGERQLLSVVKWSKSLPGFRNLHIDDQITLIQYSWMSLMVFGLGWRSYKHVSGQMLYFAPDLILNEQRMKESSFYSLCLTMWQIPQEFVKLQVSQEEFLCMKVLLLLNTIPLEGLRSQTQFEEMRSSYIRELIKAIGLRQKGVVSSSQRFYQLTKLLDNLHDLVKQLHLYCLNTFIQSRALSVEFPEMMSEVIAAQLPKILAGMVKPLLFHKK

[3] = target: T3, human mineralocorticoid receptor (MR) (Homo sapiens, UniProt P08235); assay: Co-transfection assay, MR antagonist activity, CV-1 cells (pRShMR); assay type: cell-based; conditions: Table 4; antagonist mode; % maximal inhibition
T3 construct: expressed in transfected cells; host or cells: CV-1 cells, transient transfection
T3 sequence (P08235 1-984): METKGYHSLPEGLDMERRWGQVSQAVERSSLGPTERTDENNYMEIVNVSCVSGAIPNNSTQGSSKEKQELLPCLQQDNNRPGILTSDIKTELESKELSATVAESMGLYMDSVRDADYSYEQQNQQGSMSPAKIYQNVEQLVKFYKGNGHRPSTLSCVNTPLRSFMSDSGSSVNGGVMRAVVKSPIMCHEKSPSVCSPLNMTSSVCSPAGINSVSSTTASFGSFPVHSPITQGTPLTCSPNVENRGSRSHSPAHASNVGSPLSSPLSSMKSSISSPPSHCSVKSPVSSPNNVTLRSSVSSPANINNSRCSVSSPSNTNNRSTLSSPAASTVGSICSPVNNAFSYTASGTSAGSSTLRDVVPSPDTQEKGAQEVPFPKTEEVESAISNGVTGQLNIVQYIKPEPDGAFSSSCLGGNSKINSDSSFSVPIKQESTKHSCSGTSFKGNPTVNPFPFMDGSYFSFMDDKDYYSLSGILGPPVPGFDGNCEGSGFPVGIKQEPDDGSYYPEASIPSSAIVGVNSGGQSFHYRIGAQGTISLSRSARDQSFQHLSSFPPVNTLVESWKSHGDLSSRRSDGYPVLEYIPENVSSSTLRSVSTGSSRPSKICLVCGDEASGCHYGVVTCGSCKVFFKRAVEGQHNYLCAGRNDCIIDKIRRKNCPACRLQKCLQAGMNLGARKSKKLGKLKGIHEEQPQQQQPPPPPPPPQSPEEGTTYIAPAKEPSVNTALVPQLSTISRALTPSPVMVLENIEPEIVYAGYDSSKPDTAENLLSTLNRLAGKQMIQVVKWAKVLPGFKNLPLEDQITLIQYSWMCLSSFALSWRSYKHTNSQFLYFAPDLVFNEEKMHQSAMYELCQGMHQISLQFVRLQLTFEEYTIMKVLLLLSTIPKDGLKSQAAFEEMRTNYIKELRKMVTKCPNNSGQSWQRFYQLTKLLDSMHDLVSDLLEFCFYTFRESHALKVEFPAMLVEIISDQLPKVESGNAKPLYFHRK

[4] = target: T4, human glucocorticoid receptor (GR) (Homo sapiens, UniProt P04150); assay: Co-transfection assay, GR antagonist activity, CV-1 cells (pRShGR); assay type: cell-based; conditions: for GR Antagonist CV-1 Cells Efficacy (%): Table 4, antagonist mode, % maximal inhibition
T4 construct: expressed in transfected cells; host or cells: CV-1 cells, transient transfection
T4 sequence (P04150 1-777): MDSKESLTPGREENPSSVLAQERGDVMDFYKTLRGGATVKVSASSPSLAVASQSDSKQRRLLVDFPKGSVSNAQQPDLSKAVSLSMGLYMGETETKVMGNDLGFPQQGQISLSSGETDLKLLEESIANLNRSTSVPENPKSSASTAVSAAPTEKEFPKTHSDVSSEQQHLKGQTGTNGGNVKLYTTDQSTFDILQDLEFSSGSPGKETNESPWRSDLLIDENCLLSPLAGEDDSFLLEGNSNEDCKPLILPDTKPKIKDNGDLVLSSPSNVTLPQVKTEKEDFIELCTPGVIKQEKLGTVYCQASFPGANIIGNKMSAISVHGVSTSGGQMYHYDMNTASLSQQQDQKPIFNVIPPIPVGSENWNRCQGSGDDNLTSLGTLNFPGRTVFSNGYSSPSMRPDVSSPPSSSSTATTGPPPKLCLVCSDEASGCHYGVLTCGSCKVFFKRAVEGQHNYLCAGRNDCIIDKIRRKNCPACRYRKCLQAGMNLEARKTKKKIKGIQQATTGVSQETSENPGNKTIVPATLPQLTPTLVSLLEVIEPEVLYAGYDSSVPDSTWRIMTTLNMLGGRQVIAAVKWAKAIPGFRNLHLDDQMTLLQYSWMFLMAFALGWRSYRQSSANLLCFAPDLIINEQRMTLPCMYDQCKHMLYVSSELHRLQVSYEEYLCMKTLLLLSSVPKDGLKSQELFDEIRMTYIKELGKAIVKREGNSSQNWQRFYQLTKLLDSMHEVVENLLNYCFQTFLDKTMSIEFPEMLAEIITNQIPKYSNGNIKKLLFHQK

[5] = 0.3 mg/rat oral once a day for three days + E1 10 μg
[6] = 1.0 mg/rat oral once a day for three days + E1 10 μg
[7] = 3.0 mg/rat oral once a day for three days + E1 10 μg
[8] = agonist mode, EC50, read-out: PR Agonist CV-1 Cells Potency

SMILES: CCCCC1Oc2ccc(F)cc2-c2ccc3c(c21)C(C)=CC(C)(C)N3 (racemic) [Compound 210, (R/S)-5-Butyl-9-fluoro-1,2-dihydro-2,2,4-trimethyl-5H-chromeno[3,4-f]quinoline]
- Mean Uterine Wet Weight [1, 5]: 110 mg
- Mean Uterine Wet Weight [1, 6]: 100 mg
- Mean Uterine Wet Weight [1, 7]: 100 mg
- effect on uterine wet weight when co-administered with estrone [1]: decreased by approximately half

SMILES: CC1=CC(C)(C)Nc2ccc3c(c21)/C(=C/c1ccccc1C)Oc1ccc(F)cc1-3 [Compound 374, (Z)-9-Fluoro-1,2-dihydro-2,2,4-trimethyl-5-(2-methylbenzylidene)-5H-chromeno[3,4-f]quinoline]
- steroid receptor selectivity profile (PR, AR, ER, GR and MR): highly selective PR agonists
- PR Agonist CV-1 Cells Efficacy (%) (human PR-B): 231%
- PR Antagonist CV-1 Cells Efficacy (%) (human PR-B): na (na = not active (i.e. efficacy or <20 and potency of >10,000))
- EC50 (human PR-B; [8]): 4 nM
- IC50 (human PR-B): > 10000 nM
- Ki [2]: 0.5 nM

SMILES: CC1=CC(C)(C)Nc2cc3c(cc21)-c1ccc(F)cc1C3 [Compound 124, 8-Fluoro-1,2-dihydro-2,2,4-trimethylindeno[1,2-g]quinoline]
- steroid receptor selectivity profile (PR, AR, ER, GR and MR): highly selective PR antagonists
- EC50 (human PR-B): 1600 nM
- PR Agonist CV-1 Cells Efficacy (%) (human PR-B; agonist mode, percent maximal response relative to reference agonist progesterone): 74%
- PR Antagonist CV-1 Cells Efficacy (%) (human PR-B; antagonist mode, progesterone at its EC50, % maximal inhibition): 36%
- IC50 (human PR-B; antagonist mode, progesterone at its EC50, IC50): 10 nM
- Ki [2]: 4 nM

SMILES: CC#C[C@]1(O)CC[C@H]2[C@@H]3CCC4=CC(=O)CCC4=C3[C@@H](c3ccc(N(C)C)cc3)C[C@@]21C [RU486, (11 beta, 17 beta)-11-[4-(dimethylamino)phenyl]-17-hydroxy-17-(1-propynyl)estra-4,9-dien-3-one, reference compound]
- MR Antagonist CV-1 Cells Efficacy (%) [3]: 77%
- GR Antagonist CV-1 Cells Efficacy (%) [4]: 100%

SMILES: CC1=CC(C)(C)Nc2ccc3c(c21)C(c1cccc(F)c1)Oc1ccccc1-3 (racemic) [Compound 191, (R/S)-5-(3-Fluorophenyl)-1,2-dihydro-2,2,4-trimethyl-5H-chromeno[3,4-f]quinoline]
- steroid receptor selectivity profile (PR, AR, ER, GR and MR): highly selective PR agonists
- EC50 (human PR-B; [8]): 9 nM
- IC50 (human PR-B): 150 nM
- Ki ([2]; read-out: PR Binding Ki): 1 nM

SMILES: CC(=O)S[C@@H]1CC2=CC(=O)CC[C@]2(C)[C@H]2CC[C@@]3(C)[C@@H](CC[C@@]34CCC(=O)O4)[C@H]12 [Spir, reference compound]
- MR Antagonist CV-1 Cells Efficacy (%) [3]: 96%
- IC50 [4]: 2000 nM
- GR Antagonist CV-1 Cells Efficacy (%) [4]: 80%

SMILES: CC(=O)O[C@]1(C(C)=O)CC[C@H]2[C@@H]3C[C@H](C)C4=CC(=O)CC[C@]4(C)[C@H]3CC[C@@]21C [MPA, medroxyprogesterone acetate, reference compound]
- Mean Uterine Wet Weight [1, 5]: 140 mg
- Mean Uterine Wet Weight [1, 6]: 130 mg
- Mean Uterine Wet Weight [1, 7]: 130 mg
- effect on uterine wet weight when co-administered with estrone [1]: significantly decreased

- steroid receptor selectivity profile (PR, AR, ER, GR and MR): highly selective PR antagonists
- PR Antagonist CV-1 Cells Efficacy (%) (human PR-B): 76%
- EC50 (human PR-B; [8]): > 10000 nM
- IC50 (human PR-B): 35 nM
- Ki ([2]; read-out: PR Binding Ki): 10 nM
SMILES: CC1CC(C)(C)Nc2ccc(-c3cc(F)cc(C#N)c3)cc21 (racemic) [Compound 455, (R/S)-6-(3-Cyano-5-Fluorophenyl)-1,2,3,4-Tetrahydro-2,2,4-trimethylquinoline]
- PR Agonist CV-1 Cells Efficacy (%) (human PR-B): na (na = not active (i.e. efficacy or <20 and potency of >10,000))
